From article PMC6468270, “Recognition of ASF1 by Using Hydrocarbon‐Constrained Peptides” (Chembiochem, 2019)
“And” between values parts separate entries of the source, which are not always exact repeats. Identical values can stand only once. Like-named read-outs stand apart in the source and are kept apart here. Starred links: 1 amine or outer side, 2 acyl side, 3 side chain; linkers in the order of their positions; H or OH if unused. Positions of bridges follow the written chain, without caps; N, C: chain ends. Non-standard residues stand in square brackets, D forms with d. Residues, ends and D or L forms follow the SMILES beside them. Nle(6-ylidene) = O=C([C@H](CCCC=[*:3])N[*:1])[*:2]

Legend:
[1] = Circular dichroism (CD), % helicity; assay type: physicochemical; details: 100 μM peptide in 40 mM sodium phosphate, pH 7.5, 293 K, scans in duplicate
Method: The helical character of all three peptides was investigated by using circular dichroism (CD) in both 40 mM phosphate buffer and trifluoroethanol (TFE). […] (Figure 2).
Circular Dichroism was performed on an Applied Photophysics ChiraScan Apparatus and Software.
For each scan, the following parameters were used: 180-260 nm range; point time 1 s; 1 nm per point; step = 1; bandwidth 4.3 nm; path length 1 mm; temperature 20 °C. Scans were done in duplicate.
Samples were dissolved in 4 0 mM sodium phosphate b uffer pH 7.50 at concentration of 100 μM.
Where θ = circular dichroism at a given wavelength, c = molar concentration, l = path length in cm, R = number of residues in the peptide sequence.
Figure ESI 1. Conformational analyses of histone H3 variant peptides by circular dichroism (CD) analyses (peptide concentration =100 μM, 40 mM sodium phosphate (or 40 mM sodium phosphate/ […]
(§1) Expression and Purification of ASF-1
(§2) Recombinant human ASF1 (ASF1A(1-156)) was purified as already described from expression in E. coli of a (His)6–GST –Tev site–Asf1 fusion protein using the pETM30 plasmid. Briefly, soluble (His)6-tagged GST fusion protein was purified on reduced glutathione (GSH) agarose beads (Sigma).
(§3) After cleavage with recombinant (His)6-TEV protease at room temperature overnight, the (His)6-GST tag and the protease were trapped in a Ni-NTA agarose column (Qiagen). The flow-through fraction containing ASF1 proteins was further purified by anion exchange chromatography using a Resource Q 6mL column (GE Healthcare). ASF1 was then concentrated using an Amicon device (Millipore) and the buffer was replaced with a 50mM Tris-HCl (pH7.5). Unlabled ASF1 used for ITC experiments was purified from pellets of bacteria grown in LB medium, and uniformly labelled ASF1 from bacteria gown in M9 minimal media supplemented with (15NH4)Cl (Eurisotop,0.5 g.l−1) as the sole nitrogen source.
(§4) (1 picture or pasted object on this page, not shown here)

proteinase K [2] = test: Proteolysis assay with proteinase K; assay type: in vitro ADME; details: Tritirachium album (Parengyodontium album); fitted half-life; 50 mM Tris, pH 8, 100 mM NaCl, room temperature, 50 M peptide, 0.1 g/ml proteinase K (µ lost in print); LC-ESI-MS, intact peptide relative to t=0, exponential decay fit; read-out: Proteinase K t 1/2
Method: (§5) The proteolytic stability of the peptides was also investigated by using trypsin and proteinase K. The unconstrained H3_118–135 was cleaved within 14 minutes by both proteases (Figure 4, Table 2 and the Supporting Information), whereas the constrained peptides had increased stability depending on the position of the constraint. […]
(§6) The experiment wells contained aqueous buffer (50 mM Tris, pH 8, 100 mM NaCl, 170 µL) to which peptide solution (10 µL, 1 mM in H2O) and enyzme solution (20 µL 0.5 µg/ml trypsine or 20 µL 1 µg/ml proteinase K) was added. Final concentrations in the experiment wells were 50 µM peptide, 0.05 µg/ml trypsine or 0.1 µg/ml proteinase K. A control experiment was started at the same time without the enzymes. 10 µL aliqouts of the reaction were quenched at different time-points using 90 µL 2% TFA solution. Samples were measured using LC-ESI-MS on a Bruker Maxis impact mass spectrometer equipped with a Thermo Ultimate 3000 UPLC. All samples were run on an Acquity BEH C4 column using a gradient of 1-90% B (A: H2O + 0.1 % formic acid, B: ACN + 0.1 % formic acid) over 4 minutes.
(§7) Intact peptide content was determined relative to the t=0 time-point based on HPLC peak areas. Curves were fitted using an exponential decay function in Origin Pro 9.

trypsin = test: Proteolysis assay with trypsin; assay type: in vitro ADME
Method: as §5, §6, §7

ASF1A(1–156) [3] = target: T1, ASF1A(1–156) (Homo sapiens, UniProt Q9Y294); test: Isothermal titration calorimetry (ITC) of peptide binding to ASF1; details: 20°C, 50mM Tris-HCl pH 7.5, protein 10µM, peptide 200µM, at least in duplicate
T1 construct: Recombinant human ASF1 (ASF1A(1-156)) was purified as already described; (His)6-GST-TEV site (N, cleaved yes); made in house; host or cells: E. coli (pETM30 plasmid)
T1 sequence (Q9Y294 1-156): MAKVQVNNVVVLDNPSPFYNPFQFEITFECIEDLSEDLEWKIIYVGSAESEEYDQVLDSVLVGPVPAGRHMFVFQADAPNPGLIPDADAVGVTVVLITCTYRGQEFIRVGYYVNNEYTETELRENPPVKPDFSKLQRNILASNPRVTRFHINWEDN
Method: Binding of the peptides to ASF1 was then assessed by isothermal titration calorimetry (ITC; Figure 3, Table 1). […] Strikingly, the binding potency was similar in all three cases, ΔG=−7.3 to −8.0 kcal M ^−1, despite H3_118–135(St123–127)GCA adopting a more helical conformation and therefore presumably being more pre‐organised towards ASF1 recognition. Analyses of the thermodynamic determinants of binding reveal enthalpy–entropy compensation. […] In contrast, for the more helical peptide, H3_118–135(St123–127)GCA, the entropy of binding (TΔS=3.1 kcal M ^−1) was favourable, consistent with the anticipated effect of pre‐organisation; however, the enthalpy of binding (ΔH=−4.2 kcal M ^−1) was less favourable than for the less helical variants. […] Such an effect might arise because the less helical peptides H3_118–135 and H3_118–135(St120–124) form enthalpically favourable backbone hydrogen bonds upon a change in conformation to the helix, whereas the more pre‐organised helix H3_118–135(St123–127)GCA neither gains new hydrogen bonds nor undergoes an entropically costly change in conformation on binding ASF1. Alternatively, differential changes in the solvation of the peptides upon binding could account for such a difference in thermodynamic signature. Either way, the results underscore a limitation in correlating conformational stability against binding potency for the unconstrained (H3_118–135) and constrained (H3_118–135(St123–127)GCA) peptides; although the helical conformation is preferred for H3_118–135(St123–127)GCA, this can be considered as arising from an increase in energy (or destabilisation) of nonhelical conformations for this sequence as opposed to preorganisation of the wild‐type sequence. […]
as §1, §2, §3, §4
Isothermal Titration Calorimetry
All IsoThermal Calorimetry (ITC) experiments were performed in a VP-ITC titration calorimeter (Microcal/Malvern) at 20°C, in a 50mM Tris-HCl pH 7.5 buffer. Protein and peptides concentrations were set to values 10µM and 200µM, respectively. Protein and peptide samples were prepared in the same buffer and degassed (ThermoVac, Malvern). After equilibrating the cell at […], the rotating syringe (310rpm) injected at intervals of 280s, 6µL aliquots of peptide solution into the Asf1 previously introduced in the sample cell until saturation was observed. Raw ITC data were processed with the Origin 7.0 Software (OriginLab, Malvern) using the One-Set of Sites fitting model. All ITC experiments were performed at least in duplicate. […]
as §7

ASF1A(1–156) [4] = target: T1, ASF1A(1–156); test: NMR chemical-shift-perturbation study with 15N labelled ASF1A(1–156); assay type: binding; details: uniformly 15N labelled ASF1A(1–156), mapped on PDB 2IIJ
Method: In order to confirm the binding mode of the constrained peptides with ASF1, chemical‐shift‐perturbation studies were carried out for all three peptides (Figure S2) by using uniformly ^15N labelled ASF1A(1–156). The chemical‐shift variation was mapped onto the protein structure of ASF1A–H3 (PDB ID: 2IIJ). All three peptides induced the highest values of chemical‐shift variation and a “slow‐exchange” regime for the ASF1 residues defining the already well characterised H3 binding site (V45–E51, V90–I97, R108–Y111, V146–T147),37, 45 thus confirming the preservation of the specific binding mode for the constrained peptides.

proteinase K [5] = target: proteinase K (Parengyodontium album, UniProt P06873); test: Proteolysis assay with proteinase K; assay type: in vitro ADME; details: 50 mM Tris, pH 8, 100 mM NaCl, room temperature, LC-ESI-MS
proteinase K (Parengyodontium album, UniProt P06873), sequence (P06873 106-384, species assumed): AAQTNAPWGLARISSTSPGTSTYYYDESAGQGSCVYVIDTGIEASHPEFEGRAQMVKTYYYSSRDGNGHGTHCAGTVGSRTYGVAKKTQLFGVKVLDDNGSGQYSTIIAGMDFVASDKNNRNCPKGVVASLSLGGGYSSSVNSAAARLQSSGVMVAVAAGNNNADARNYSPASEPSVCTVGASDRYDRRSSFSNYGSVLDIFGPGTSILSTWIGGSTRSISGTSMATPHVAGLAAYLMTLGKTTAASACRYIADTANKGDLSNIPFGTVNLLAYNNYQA
Method: as §5, §6, §7

ASF1A(1–156) [6] = target: T2, ASF1A(1–156) (UniProt Q9Y294 1-156, uniformly 15N labelled (in the chemical-shift-perturbation study only)); test: ITC; H3 peptides with ASF1A(1–156); exothermic, fitted to a 1:1 binding isotherm; conditions not shown; details: both partners purified
T2 construct: ASF1A (anti-silencing function 1A), histone chaperone, conserved N-terminal domain, residues 1-156; The same construct limits as in PDB 2IIJ; also called anti-silencing function 1
T2 sequence (Q9Y294 1-156): as the sequence (Q9Y294 1-156) above

[7] = trypsin, fitted half-life, 50 mM Tris, pH 8, 100 mM NaCl, room temperature, 50 M peptide, 0.05 g/ml trypsine (µ lost in print), LC-ESI-MS, intact peptide relative to t=0, exponential decay fit, read-out: Trypsin t 1/2

Molecule | % helicity [1] [%] | half-life at 50 µM (proteinase K [2]) [min] | half-life at 50 µM (trypsin; [7]) [min] | TΔS (ASF1A(1–156) [3]) | ΔG (ASF1A(1–156) [3]) [kcal M ^−1] | ΔH (ASF1A(1–156) [3]) | chemical-shift variation at the B domain binding site (S59–F72) of ASF1 (nonspecific binding) (ASF1A(1–156) [4]) | time within which peptide was cleaved by proteinase K (proteinase K [5]) [min] | half-life at 50 µM (trypsin; isolated enzyme trypsin, pH 8) [min] | Kd (ASF1A(1–156) [6]) [nM] | dH (ASF1A(1–156) [6]) [kcal/M] | stoichiometry N (ASF1A(1–156) [6])
CC[C@H](C)[C@H](NC(=O)[C@H](CCCNC(=N)N)NC(=O)[C@H](CCCNC(=N)N)NC(=O)[C@@H]1CCCC=CCCC[C@H](NC(=O)[C@H](CCCCN)NC(=O)CNC(=O)[C@H](CCSC)NC(=O)[C@H](C)NC(=O)CNC(C)=O)C(=O)N[C@@H]([C@@H](C)CC)C(=O)N[C@@H](CCC(N)=O)C(=O)N[C@@H](CC(C)C)C(=O)N1)C(=O)N[C@@H](CCCNC(=N)N)C(=O)NCC(=O)N[C@@H](CCC(=O)O)C(=O)N[C@@H](CCCNC(=N)N)C(=O)N[C@@H](C)C(=O)NCC(=O)N[C@@H](CS)C(=O)N[C@@H](C)C(N)=O [H3_118–135(St123–127)GCA] (Ac-GAMGK[Nle(6-ylidene)]IQL[Nle(6-ylidene)]RRIRGERAGCA-NH2; staple 6-10) | 29 | 23.1 ± 2.6 | 40.5 ± 16.9 | 3.1 kcal M ^−1 and 3.1±0.2 kcal M ^−1 | −7.3±0.05 | −4.2 kcal M ^−1 and −4.2±0.08 kcal M ^−1 | no chemical‐shift variation |  |  |  |  | 
Ac-GAMGKDIQLARRIRGERA-NH2 [H3_118–135] | 15 | 12.2 ± 0.8 |  | −6.4 to −6.7 kcal M ^−1 and −6.4±0.51 kcal M ^−1 | −8.0±0.14 | −14.4 to −15.0 kcal M ^−1 and −14.4±0.37 kcal M ^−1 | exhibited chemical‐shift variations | ≤ 14 | 13.3 ± 1.5 |  |  | 
CC[C@H](C)[C@H](NC(=O)[C@H](CCCNC(=N)N)NC(=O)[C@H](CCCNC(=N)N)NC(=O)[C@H](C)NC(=O)[C@H](CC(C)C)NC(=O)[C@H](CCC(N)=O)NC(=O)[C@@H]1CCCC=CCCC[C@H](NC(=O)[C@H](C)NC(=O)CNC(C)=O)C(=O)NCC(=O)N[C@@H](CCCCN)C(=O)N[C@@H](CC(=O)O)C(=O)N1)C(=O)N[C@@H](CCCNC(=N)N)C(=O)NCC(=O)N[C@@H](CCC(=O)O)C(=O)N[C@@H](CCCNC(=N)N)C(=O)N[C@@H](C)C(N)=O [H3_118–135(St120–124)] (Ac-GA[Nle(6-ylidene)]GKD[Nle(6-ylidene)]QLARRIRGERA-NH2; staple 3-7) | 20 | 65.8 ± 15.7 | 14.9 ± 2.5 |  | −8.3±0.07 |  | exhibited chemical‐shift variations |  |  |  |  | 
TIMPKDIQLARRIRGERA (peptide, UniProt P68431 119-136, looked up, histone H3, C-terminal helix peptide, residues 118-135; also called histone H3(118–135); unconstrained H3_(118–135); source: synthetic peptide (solid-phase peptide synthesis)) [H3_(118–135)] |  |  |  |  |  |  |  |  |  | 1340 ± 330 | -14.4 ± 0.37 | 0.94 ± 0.04
